This is an account of results in patent US4105668A, “Process for 6-amino-2,2-dimethyl-3-(5-tetrazolyl)penam” (Pfizer Inc., priority 1977, dated 1978).

Series [1] relates to gram-positive and gram-negative bacteria. As to the kind of experiment: In vitro activity against gram-positive and gram-negative bacteria. Format: cell-based. How it is done:
(§1) The broth is inoculated with the bacterial culture, and with the test compound, and then it is incubated overnight. On the next day, the test is read visually. The minimum inhibitory concentration (MIC) is the lowest concentration of compound which prevents turbidity, i.e., which prevents growth of the microorganism. In vitro activities against certain pathogenic bacteria area shown in Table I. This in vitro activity makes the compound of value for topical applications, for example, in the form of creams and ointments, and for the sterilization of sickroom and hospital surfaces, equipment and the like. […] This in vivo activity makes this compound suitable for the control of bacterial infections caused by susceptible organisms, in mammals, including man, by both the oral and parenteral mode of administration.

Series [2] relates to Staphylococcus aureus or Escherichia coli. Nature of the series: In vivo antibacterial activity in infected mice (statement in words). Conditions: SC and PO. How it is done: as §1
For series [3], the system named is Escherichia coli. As to the kind of experiment: In vivo antibacterial activity, protection of mice against systemic infection (lethal intraperitoneal inoculum). The following applies: infected mice, multiple dosing.
For series [4], the system named is Staphylococcus aureus. The description is as above. The following applies: infected mice, multiple dosing.
Series [5] deals with Staphylococcus aureus. Nature of the series: In vitro antibacterial activity (MIC), two-fold serial dilution in Brain-Heart Infusion broth. The series is classed as cell-based. Conditions: S. aureus, overnight. The procedure:
as §1

Series [6] has as its system Escherichia coli. The description is as above. Format: cell-based. Conditions: E. coli, overnight. How it is done: as §1
The subject of a further series is Streptococcus pyogenes. The description is as above. Conditions: S. pyogenes, overnight. Format: cell-based. The procedure: as §1
A short description of the next series: Isoelectric point. Format: physicochemical. Conditions: in water.

Structures are written as SMILES. Converted amounts (≈) assume the structure as drawn.

Broadly, the MIC is the lowest concentration that inhibits growth of the organism. A high value points to a need for much substance. Take `CC1(C)S[C@@H]2[C@H](NC(=O)[C@H](N)c3ccc(O)cc3)C(=O)N2[C@H]1c1nn[nH]n1` [6-(D-2-Amino-2-[4-hydroxyphenyl]acetamido)-2,2-dimethyl-3-(5-tetrazolyl)penam]: in series [1], the “activity against a wide variety of gram-positive and gram-negative bacteria” value is “shows activity against a wide variety of gram-positive and gram-negative bacteria”. Moreover, in series [2], the “antibacterial activity in vivo” value is listed as “active as an antibacterial agent in vivo”. The “Percentage protection E. coli” value in the series with Escherichia coli [3] (25 mg./kg. SC) stood at 80%; in the series with Escherichia coli [3] (50 mg./kg. SC) it was 100%; in the series with Escherichia coli [3] (200 mg./kg. PO), 100%. For the same compound, the “Percentage protection S. Aureus” value with Staphylococcus aureus [4] (6 mg./kg. SC) came out at 50%; with Staphylococcus aureus [4] (12 mg./kg. SC) it was 50%; in the series on Staphylococcus aureus [4] (25 mg./kg. SC), 70%; with Staphylococcus aureus [4] (50 mg./kg. SC), 80%. The minimum inhibitory concentration (MIC) with Staphylococcus aureus [5] was determined as 6 ng/mL (≈ 0.0154 µM); in the series on Escherichia coli [6] it was 780 ng/mL (≈ 2 µM); against Streptococcus pyogenes, 1 ng/mL (≈ 0.00257 µM).

Consider `CC1(C)S[C@@H]2[C@H](N)C(=O)N2[C@H]1c1nn[nH]n1` [6-amino-2,2-dimethyl-3-(5-tetrazolyl)penam], for which the isoelectric point in the series “Isoelectric point” is recorded as about 4.1 pH.
